Laboratory results as given in article PMC5218480 (PLoS ONE, 2017).

System: MV-4-11 cells
Experiment: Gene expression microarray analysis (Affymetrix PrimeView) and GSEA
Format: cell-based, human
Design: RFU PODN (11730768_x_at) / Fold change /veh PODN (11730768_x_at) / RFU LINC00158 (11744669_a_at) / Fold change /veh LINC00158 (11744669_a_at) / RFU DUSP10 (11751237_a_at) / Fold change /veh DUSP10 (11751237_a_at) / RFU ID3 (11757404_x_at) / Fold change /veh ID3 (11757404_x_at) / RFU PLEKHG5 (11737974_s_at) / Fold change /veh PLEKHG5 (11737974_s_at) / RFU LRRC4B (11730491_at) / Fold change /veh LRRC4B (11730491_at) / RFU GIMAP4 (11747438_a_at) / Fold change /veh GIMAP4 (11747438_a_at) / RFU KRT8 (11758183_x_at) / Fold change /veh KRT8 (11758183_x_at) / RFU CNN1 (11734310_a_at) / Fold change /veh CNN1 (11734310_a_at) / RFU VPS37D (11726825_at) / Fold change /veh VPS37D (11726825_at) / RFU C10orf10 (11716522_x_at) / Fold change /veh C10orf10 (11716522_x_at) / RFU KIR2DL2 /// KIR2DL4 /// KIR2DL5A /// KIR2DL5B /// KIR2DS1 /// KIR2DS2 /// KIR2DS3 /// KIR2DS4 /// KIR3DL3 /// KIR3DL3 /// KIR3DS1 (11738374_at) / Fold change /veh KIR2DL2 /// KIR2DL4 /// KIR2DL5A /// KIR2DL5B /// KIR2DS1 /// KIR2DS2 /// KIR2DS3 /// KIR2DS4 /// KIR3DL3 /// KIR3DL3 /// KIR3DS1 (11738374_at) / RFU C1QL1 (11718748_at) / Fold change /veh C1QL1 (11718748_at) / RFU TMPRSS4 (11747572_a_at) / Fold change /veh TMPRSS4 (11747572_a_at) / RFU HAMP (11756126_x_at) / Fold change /veh HAMP (11756126_x_at) / RFU RNFT2 (11725882_a_at) / Fold change /veh RNFT2 (11725882_a_at) / RFU NR4A2 (11747474_a_at) / Fold change /veh NR4A2 (11747474_a_at) / RFU ABCC12 (11746883_a_at) / Fold change /veh ABCC12 (11746883_a_at) / RFU TMEM136 (11760407_x_at) / Fold change /veh TMEM136 (11760407_x_at) / RFU CLDN22 /// WWC2 (11732394_at) / Fold change /veh CLDN22 /// WWC2 (11732394_at) / RFU HLA-DPB1 (11760878_x_at) / Fold change /veh HLA-DPB1 (11760878_x_at) / RFU SPINT1 (11716480_a_at) / Fold change /veh SPINT1 (11716480_a_at) / RFU GAP43 (11754022_s_at) / Fold change /veh GAP43 (11754022_s_at) / RFU A4GNT (11735810_at) / Fold change /veh A4GNT (11735810_at) / RFU PRB3 (11715151_x_at) / Fold change /veh PRB3 (11715151_x_at) / RFU TUBB4B (11761932_at) / Fold change /veh TUBB4B (11761932_at) / RFU CAPN14 (11732068_a_at) / Fold change /veh CAPN14 (11732068_a_at) / RFU TMCC2 (11721928_a_at) / Fold change /veh TMCC2 (11721928_a_at) / RFU IRGQ (11745062_a_at) / Fold change /veh IRGQ (11745062_a_at) / RFU FAM174B (11720279_a_at) / Fold change /veh FAM174B (11720279_a_at) / RFU TMPRSS4 (11748680_a_at) / Fold change /veh TMPRSS4 (11748680_a_at) / RFU FAM212B (11763350_a_at) / Fold change /veh FAM212B (11763350_a_at) / RFU PLEKHG5 (11743358_a_at) / Fold change /veh PLEKHG5 (11743358_a_at) / RFU ZSCAN30 (11745921_a_at) / Fold change /veh ZSCAN30 (11745921_a_at) / RFU CMKLR1 (11741424_a_at) / Fold change /veh CMKLR1 (11741424_a_at) / RFU LOC101060620 /// MAPK8IP1 (11723275_at) / Fold change /veh LOC101060620 /// MAPK8IP1 (11723275_at) / RFU SPTSSB (11747773_x_at) / Fold change /veh SPTSSB (11747773_x_at) / RFU PRSS12 (11739890_at) / Fold change /veh PRSS12 (11739890_at) / RFU BIN1 (11741810_x_at) / Fold change /veh BIN1 (11741810_x_at) / RFU WNT11 (11732464_a_at) / Fold change /veh WNT11 (11732464_a_at) / RFU C10orf10 (11716521_a_at) / Fold change /veh C10orf10 (11716521_a_at) / RFU C5orf56 (11738089_at) / Fold change /veh C5orf56 (11738089_at) / RFU CYB561 (11721691_x_at) / Fold change /veh CYB561 (11721691_x_at) / RFU ANKRD19P (11752326_a_at) / Fold change /veh ANKRD19P (11752326_a_at) / RFU OR2T12 /// OR2T33 /// OR2T8 (11738714_s_at) / Fold change /veh OR2T12 /// OR2T33 /// OR2T8 (11738714_s_at) / RFU VCAN (11748164_a_at) / Fold change /veh VCAN (11748164_a_at) / RFU JSRP1 (11732532_at) / Fold change /veh JSRP1 (11732532_at) / RFU KRTAP10-11 (11738290_x_at) / Fold change /veh KRTAP10-11 (11738290_x_at) / RFU MYO3A (11730013_a_at) / Fold change /veh MYO3A (11730013_a_at) / RFU EBF3 (11725865_a_at) / Fold change /veh EBF3 (11725865_a_at) / RFU CAMK2N1 (11719241_x_at) / Fold change /veh CAMK2N1 (11719241_x_at) / RFU C5orf56 (11738088_a_at) / Fold change /veh C5orf56 (11738088_a_at) / RFU OLFML3 (11715873_a_at) / Fold change /veh OLFML3 (11715873_a_at) / RFU LOC100653217 /// NTM (11731650_a_at) / Fold change /veh LOC100653217 /// NTM (11731650_a_at) / RFU MAPK11 (11762145_a_at) / Fold change /veh MAPK11 (11762145_a_at) / RFU FIZ1 (11724087_x_at) / Fold change /veh FIZ1 (11724087_x_at) / RFU OASL (11726364_x_at) / Fold change /veh OASL (11726364_x_at) / RFU SOX15 (11748057_x_at) / Fold change /veh SOX15 (11748057_x_at) / RFU CD79A (11719716_a_at) / Fold change /veh CD79A (11719716_a_at) / RFU HIST1H1D (11736915_at) / Fold change /veh HIST1H1D (11736915_at) / RFU CASKIN2 (11723855_a_at) / Fold change /veh CASKIN2 (11723855_a_at) / RFU LOC730098 (11760151_x_at) / Fold change /veh LOC730098 (11760151_x_at) / RFU OR4N2 (11742367_at) / Fold change /veh OR4N2 (11742367_at) / RFU PRRT2 (11749266_a_at) / Fold change /veh PRRT2 (11749266_a_at) / RFU SNX32 (11753110_a_at) / Fold change /veh SNX32 (11753110_a_at) / RFU CDHR5 (11726645_a_at) / Fold change /veh CDHR5 (11726645_a_at) / RFU RCAN1 (11760418_a_at) / Fold change /veh RCAN1 (11760418_a_at) / RFU FAM167A (11723789_a_at) / Fold change /veh FAM167A (11723789_a_at) / RFU FAM26E (11764081_at) / Fold change /veh FAM26E (11764081_at) / RFU ISYNA1 (11749810_s_at) / Fold change /veh ISYNA1 (11749810_s_at) / RFU ACY1 (11761880_at) / Fold change /veh ACY1 (11761880_at) / RFU 11764098_at / Fold change /veh 11764098_at / RFU SAMD14 (11745864_x_at) / Fold change /veh SAMD14 (11745864_x_at) / RFU NPB (11741838_a_at) / Fold change /veh NPB (11741838_a_at) / RFU TMPRSS6 (11731388_a_at) / Fold change /veh TMPRSS6 (11731388_a_at) / RFU KRTAP10-2 (11738614_at) / Fold change /veh KRTAP10-2 (11738614_at) / RFU ARHGAP8 /// PRR5-ARHGAP8 (11727945_x_at) / Fold change /veh ARHGAP8 /// PRR5-ARHGAP8 (11727945_x_at) / RFU KRTAP5-7 /// NADSYN1 (11734609_at) / Fold change /veh KRTAP5-7 /// NADSYN1 (11734609_at) / RFU RASL12 (11751679_a_at) / Fold change /veh RASL12 (11751679_a_at) / RFU CDKN2B (11736163_a_at) / Fold change /veh CDKN2B (11736163_a_at) / RFU PRF1 (11729649_at) / Fold change /veh PRF1 (11729649_at) / RFU, ZNF638 /// ZNF638-IT1 / Fold change vs veh, ZNF638 /// ZNF638-IT1 / RFU, PANK3 / Fold change vs veh, PANK3 / RFU, SH3YL1 / Fold change vs veh, SH3YL1 / RFU, ZEB2 / Fold change vs veh, ZEB2 / RFU, NRIP1 / Fold change vs veh, NRIP1 / RFU, PTTG1IP / Fold change vs veh, PTTG1IP / RFU, CAPN2 / Fold change vs veh, CAPN2 / RFU, MED14 / Fold change vs veh, MED14 / RFU, SNORA58 / Fold change vs veh, SNORA58 / RFU, C1orf63 / Fold change vs veh, C1orf63 / RFU, LRRFIP1 / Fold change vs veh, LRRFIP1 / RFU, NDUFAF7 / Fold change vs veh, NDUFAF7 / RFU, SLC12A2 / Fold change vs veh, SLC12A2 / RFU, IBTK / Fold change vs veh, IBTK / RFU, ESF1 / Fold change vs veh, ESF1 / Fold change vs veh, TMEM50B / RFU, TAOK1 / Fold change vs veh, TAOK1 / RFU, ACBD3 / Fold change vs veh, ACBD3 / RFU, TMA16 / Fold change vs veh, TMA16 / RFU, RWDD3 / Fold change vs veh, RWDD3 / RFU, BCAT1 / Fold change vs veh, BCAT1 / RFU, EDEM3 / Fold change vs veh, EDEM3 / RFU, TMEM33 / Fold change vs veh, TMEM33 / RFU, WDR75 / Fold change vs veh, WDR75 / RFU, AHCTF1 / Fold change vs veh, AHCTF1 / RFU, TFRC / Fold change vs veh, TFRC / RFU, ZDHHC17 / Fold change vs veh, ZDHHC17 / RFU, NOM1 / Fold change vs veh, NOM1 / RFU, ARL8B / Fold change vs veh, ARL8B / RFU, ZBTB11 / Fold change vs veh, ZBTB11 / RFU, TAMM41 / Fold change vs veh, TAMM41 / RFU, KIAA1704 /// LOC100996395 / Fold change vs veh, KIAA1704 /// LOC100996395 / RFU, ING1 / Fold change vs veh, ING1 / RFU, TRMT61B / Fold change vs veh, TRMT61B / RFU, FUBP3 / Fold change vs veh, FUBP3 / RFU, TP53 / Fold change vs veh, TP53 / RFU, TNKS2 / Fold change vs veh, TNKS2 / RFU, ZFP14 / Fold change vs veh, ZFP14 / RFU, ACTR2 / Fold change vs veh, ACTR2 / RFU, PPP3R1 / Fold change vs veh, PPP3R1 / RFU, PIK3R1 / Fold change vs veh, PIK3R1 / RFU, HNRNPA1 / Fold change vs veh, HNRNPA1 / RFU, RNF170 / Fold change vs veh, RNF170 / RFU, ZNF28 / Fold change vs veh, ZNF28 / RFU, RNGTT / Fold change vs veh, RNGTT / RFU, OGT / Fold change vs veh, OGT / RFU, BRD1 / Fold change vs veh, BRD1 / RFU, MARS / Fold change vs veh, MARS / RFU, ZNF655 / Fold change vs veh, ZNF655 / RFU, FAHD1 / Fold change vs veh, FAHD1 / RFU, BDP1 / Fold change vs veh, BDP1 / RFU, LRRCC1 / Fold change vs veh, LRRCC1 / RFU, ARID1A / Fold change vs veh, ARID1A / RFU, ZNF146 / Fold change vs veh, ZNF146 / RFU, ZNF330 / Fold change vs veh, ZNF330 / RFU, GPN3 / Fold change vs veh, GPN3 / RFU, C9orf123 / Fold change vs veh, C9orf123 / RFU, N4BP2L2 / Fold change vs veh, N4BP2L2 / RFU, ARFIP1 / Fold change vs veh, ARFIP1 / RFU, FAM179B / Fold change vs veh, FAM179B / RFU, BCL10 / Fold change vs veh, BCL10 / RFU, UHRF1BP1L / Fold change vs veh, UHRF1BP1L / RFU, BET1 / Fold change vs veh, BET1 / RFU, CNOT2 / Fold change vs veh, CNOT2 / RFU, ZNF268 / Fold change vs veh, ZNF268 / Fold change vs veh, ZNF507 / RFU, DGCR2 / Fold change vs veh, DGCR2 / RFU, WDSUB1 / Fold change vs veh, WDSUB1 / Fold change vs veh, HSP90B1 /// MIR3652 / RFU, ADSS / Fold change vs veh, ADSS / RFU, GK / Fold change vs veh, GK / RFU, ZNF148 / Fold change vs veh, ZNF148 / RFU, TAF9 / Fold change vs veh, TAF9 / RFU, SLC1A5 / Fold change vs veh, SLC1A5 / RFU, SLMO2 / Fold change vs veh, SLMO2 / RFU, ABCC4 / Fold change vs veh, ABCC4 / RFU, LOC101060439 /// RAP1B / Fold change vs veh, LOC101060439 /// RAP1B / RFU, RFX7 / Fold change vs veh, RFX7 / RFU, GTPBP10 / Fold change vs veh, GTPBP10 / RFU, CNEP1R1 / Fold change vs veh, CNEP1R1 / RFU, BIVM-ERCC5 /// ERCC5 / Fold change vs veh, BIVM-ERCC5 /// ERCC5 / RFU, ILF3 / Fold change vs veh, ILF3 / RFU 11762660_at / Fold change /veh 11762660_at / RFU VCAN (11757783_s_at) / Fold change /veh VCAN (11757783_s_at) / RFU DDX43 (11728927_at) / Fold change /veh DDX43 (11728927_at) / RFU KRT8 (11758188_x_at) / Fold change /veh KRT8 (11758188_x_at) / RFU NKD1 (11759106_at) / Fold change /veh NKD1 (11759106_at) / RFU SRD5A1 (11742802_a_at) / Fold change /veh SRD5A1 (11742802_a_at) / RFU TPSAB1 /// TPSB2 (11721975_s_at) / Fold change /veh TPSAB1 /// TPSB2 (11721975_s_at) / RFU GSTM3 (11746129_a_at) / Fold change /veh GSTM3 (11746129_a_at) / RFU IL23R (11737362_x_at) / Fold change /veh IL23R (11737362_x_at) / RFU TMEM51 (11727254_a_at) / Fold change /veh TMEM51 (11727254_a_at) / RFU PIWIL2 (11732686_x_at) / Fold change /veh PIWIL2 (11732686_x_at) / RFU ORM1 (11744905_x_at) / Fold change /veh ORM1 (11744905_x_at) / RFU CCDC152 (11743942_at) / Fold change /veh CCDC152 (11743942_at) / RFU ECM1 (11717891_a_at) / Fold change /veh ECM1 (11717891_a_at) / RFU IL23R (11748794_a_at) / Fold change /veh IL23R (11748794_a_at) / RFU TNFAIP8L3 (11732012_x_at) / Fold change /veh TNFAIP8L3 (11732012_x_at) / RFU MBOAT4 (11741988_at) / Fold change /veh MBOAT4 (11741988_at) / RFU 11764193_at / Fold change /veh 11764193_at / RFU TMEM53 (11763286_at) / Fold change /veh TMEM53 (11763286_at) / RFU MAGEB2 (11727129_at) / Fold change /veh MAGEB2 (11727129_at) / RFU TMEM200A (11744735_a_at) / Fold change /veh TMEM200A (11744735_a_at) / RFU CCDC152 (11751479_a_at) / Fold change /veh CCDC152 (11751479_a_at) / RFU FAM211A (11726209_a_at) / Fold change /veh FAM211A (11726209_a_at) / RFU RGS16 (11746705_a_at) / Fold change /veh RGS16 (11746705_a_at) / RFU VCAN (11755009_s_at) / Fold change /veh VCAN (11755009_s_at) / RFU RHOB (11743442_s_at) / Fold change /veh RHOB (11743442_s_at) / RFU RGS16 (11720943_a_at) / Fold change /veh RGS16 (11720943_a_at) / RFU RGS16 (11720944_at) / Fold change /veh RGS16 (11720944_at) / RFU, VPS4B / Fold change vs veh, VPS4B / RFU, CREB1 / Fold change vs veh, CREB1 / RFU, DNAJC13 / Fold change vs veh, DNAJC13 / RFU, GNAQ / Fold change vs veh, GNAQ / RFU, CDK5R1 / Fold change vs veh, CDK5R1 / RFU, ZRANB3 / Fold change vs veh, ZRANB3 / RFU, CUL4A / Fold change vs veh, CUL4A / RFU, CCNY / Fold change vs veh, CCNY / RFU, UFL1 / Fold change vs veh, UFL1 / RFU, COG3 / Fold change vs veh, COG3 / RFU, DIAPH2 / Fold change vs veh, DIAPH2 / RFU, SKA2 / Fold change vs veh, SKA2 / RFU, AFF3 / Fold change vs veh, AFF3 / RFU, LMF1 / Fold change vs veh, LMF1 / RFU, IPO11 / Fold change vs veh, IPO11 / RFU, DFFB / Fold change vs veh, DFFB / RFU, FOXP1 / Fold change vs veh, FOXP1 / RFU, CARD8 / Fold change vs veh, CARD8 / RFU, STRN3 / Fold change vs veh, STRN3 / RFU, ADK / Fold change vs veh, ADK / RFU, RASSF2 / Fold change vs veh, RASSF2 / RFU, WIPF1 / Fold change vs veh, WIPF1 / RFU, LARP1B / Fold change vs veh, LARP1B / RFU, RASA1 / Fold change vs veh, RASA1 / RFU, RB1 / Fold change vs veh, RB1 / RFU, PPFIA1 / Fold change vs veh, PPFIA1 / RFU, MAT2A / Fold change vs veh, MAT2A / RFU, CCT5 / Fold change vs veh, CCT5 / RFU, WDR92 / Fold change vs veh, WDR92 / RFU, CUX1 / Fold change vs veh, CUX1 / RFU, TTC7A / Fold change vs veh, TTC7A / RFU, TMEM135 / Fold change vs veh, TMEM135 / RFU, DEPTOR / Fold change vs veh, DEPTOR / RFU, CPM / Fold change vs veh, CPM / RFU, DNAJB6 / Fold change vs veh, DNAJB6 / RFU, CACNA2D3 / Fold change vs veh, CACNA2D3 / RFU, DTX4 / Fold change vs veh, DTX4 / RFU, TFCP2 / Fold change vs veh, TFCP2 / RFU, GMCL1 /// GMCL1P1 / Fold change vs veh, GMCL1 /// GMCL1P1 / RFU, AEBP2 / Fold change vs veh, AEBP2 / RFU, SNHG1 /// SNORD22 /// SNORD25 /// SNORD26 /// SNORD27 /// SNORD28 /// SNORD29 /// SNORD31 / Fold change vs veh, SNHG1 /// SNORD22 /// SNORD25 /// SNORD26 /// SNORD27 /// SNORD28 /// SNORD29 /// SNORD31 / Fold change (Aza/veh), C12orf56 (ProbeSet 11735607_a_at) / Fold change (ACY-1035/veh), C12orf56 (ProbeSet 11735607_a_at) / Fold change (Aza/veh), FGFR1OP (ProbeSet 11751329_s_at) / Fold change (ACY-1035/veh), FGFR1OP (ProbeSet 11751329_s_at) / Fold change (Aza/veh), VPS36 (ProbeSet 11739960_a_at) / Fold change (ACY-1035/veh), VPS36 (ProbeSet 11739960_a_at) / RFU SYPL1 (11715823_x_at) / Fold change /veh SYPL1 (11715823_x_at) / RFU IGFBP7 (11715501_s_at) / Fold change /veh IGFBP7 (11715501_s_at) / RFU REEP3 (11722064_at) / Fold change /veh REEP3 (11722064_at) / RFU IGLL1 (11728026_x_at) / Fold change /veh IGLL1 (11728026_x_at): dose or concentration left out as unconfirmed
Conditions: ProbeSet 11725902_s_at; LIST D

SMILES: Nc1ccc(-c2cccs2)cc1NC(=O)c1ccc2c(c1)cc(C1CC1)n2CCN1CCOCC1 [ACY-1035]
- Fold change vs veh, TMEM135: 0.99
